Source: a melting point compilation (Tetko et al.; mined from patent text by program, amines drawn as free bases though some values may be those of a salt)

`CCCCCCCCCCCCOS(=O)(=O)NC(=O)Nc1c(C(C)C)cccc1C(C)C` showed a melting point of 112 to 115 °C.
`Cc1[nH]cnc1CN1CCc2c(c3cccc(OCc4ccccc4)c3n2COCc2ccccc2)C1=O` showed a melting point of 170 to 172 °C.
In the case of `O=C(O)Cc1ccc2c(c1)C(=O)c1ccccc1CN2`, the melting point is reported as 132 to 143 °C.
For `CCCCCCCCCCCCn1nnc(N(C(=O)Nc2ccc(F)cc2F)c2ccccc2)n1`, the melting point was 55 to 57 °C.
For `COCCn1nnc2cc3c(=O)n(C(C)Cn4nccn4)nnc3cc2c1=O` (stereo not drawn), the melting point was 145 to 146 °C.
In the case of `O=C/C=C/C1=C(c2ccc(F)cc2)C=C(c2ccc(F)cc2)CC12CCCC2`, the melting point is reported as 120 to 124 °C.
With `COc1ccc2c(c1)c1c(n2C)C2(C)CCC(=O)N2CC1` (stereo not drawn) the melting point was 164 to 167 °C.
`CCCCCCCCCCCCCCCCSCC(CNS(=O)(=O)CCCI)NC(=O)OC` (stereo not drawn) showed a melting point of 79 to 81 °C.
`CSc1noc(-c2ccc(OCCOc3ccc(C)cc3)cc2)c1C#N` showed a melting point of 139 to 140 °C.
In the case of `Cc1noc(NS(=O)(=O)c2ccccc2-c2ccc(-c3ncccn3)cc2CN2CCC(C)(C)C2=O)c1C`, the melting point is reported as 105 to 115 °C.
For `Cc1cc(CO)c2cccc(OCc3ccccc3)c2n1`, the melting point was 137 to 141 °C.
With `Nc1cc2c(Nc3ccc(F)c(Cl)c3)ncnc2cc1OCC1CCCO1` (stereo not drawn) the melting point was 162 to 164 °C.
Molecule `COc1cc2ccc(C(=N)NO)cc2cc1OC` has a melting point of 203 to 208 °C.
In the case of `COC(=O)CCCc1cc2cc(Cl)ccc2n1S(=O)(=O)c1ccc(C(C)C)cc1`, the melting point is reported as 95 to 97 °C.
Molecule `CC1(C)CC(OC(=O)Nc2ccccc2)CC(C)(C)N1CC(O)c1ccccc1` (stereo not drawn) has a melting point of 186 to 187 °C.
`COc1cc([N+](=O)[O-])ccc1S(=O)(=O)n1c(=O)n(C2CCCCCC2)c2cc(Cl)ccc21` showed a melting point of 193 °C.
With `FC(F)(F)c1ccc(COc2ccnc(CCl)c2)cc1` the melting point was 133 to 135 °C.
Molecule `O=C(C=Cc1ccc(-c2ccc3ncnc(Nc4ccc(OCc5cccc(F)c5)c(Cl)c4)c3c2)o1)NOC1CCCCO1` (stereo not drawn) has a melting point of 233 °C.
In the case of `O=[N+]([O-])c1ccc(C#CBr)cc1`, the melting point is reported as 170 °C.
In the case of `COc1cccc2c(Oc3ccccc3)cccc12`, the melting point is reported as 65 to 66 °C.
With `Cc1c(NC(=O)c2ccc(Oc3ccccc3)cc2)ccc2cc(CN3CCCC3)cnc12` the melting point was 161 to 162 °C.
`O=C(CCCCN1CCCCC1)c1ccc2c(c1)Cc1cc(C(=O)CCCCN3CCCCC3)ccc1-2` gave a melting point of 124 to 127 °C.
With `COc1ccc(C(=O)c2ccc(OCc3coc(-c4ccccc4)n3)cc2)c(OC(C)(C)C(=O)O)c1` the melting point was 165 to 167 °C.
For `CCOC(=O)n1ccc2cc(N)ccc21`, the melting point was 113 to 114 °C.
With `CN1Cc2c(C#CC(C)(C)C)ncn2-c2cccc(Cl)c2C1=O` the melting point was 126 to 128 °C.
`CCc1ccc(C=NNC(=O)c2ccc(O)cc2)o1` showed a melting point of 60.5 °C.
`O=C(O)Cn1c(-c2cccc(F)c2)nc2cccnc21` showed a melting point of 243 to 245 °C.
Molecule `CCCCCCCCCCCCCCC(CCCCCC(=O)O)CCCCCC(=O)O` has a melting point of 48 to 50 °C.
For `CCOC(=O)c1ccc(/C=C(\C)c2ccc(OC)c(C3(C)CCCCC3)c2)cc1`, the melting point was 60 to 62 °C.
Work on `Fc1c(F)c(F)c(C(Cl)=NNc2ccccc2)c(F)c1F` yielded a melting point of 117 to 118 °C.
`CCn1c(=O)c2[nH]c(/C=C/c3ccc(F)cc3)nc2n(CC)c1=O` showed a melting point of over 270 °C.
Molecule `CS(=O)(=O)Oc1ccc(-n2nc(C#N)cc2-c2ccc(S(C)(=O)=O)cc2)cc1` has a melting point of 195 to 196 °C.
For `CCCNC1CN(C(=O)Nc2ccc(C(F)(F)F)cc2)N=C1c1ccc(OC(F)F)c(C)c1` (stereo not drawn), the melting point was 90 to 92 °C.
With `O=C(Oc1ccc(Cl)c(Cl)c1)c1cc2c(cn1)[nH]c1ccccc12` the melting point was 260 to 261 °C.
In the case of `C[C@@]1(C=O)S[C@@H]2CC(=O)N2[C@H]1C(=O)OC(c1ccccc1)c1ccccc1`, the melting point is reported as 112 to 113 °C.
In the case of `CCNC(=O)c1nc2cc(NC(=O)c3c(C(=O)N4CCC4)cnn3C)ccn2n1`, the melting point is reported as 217 to 229 °C.
Molecule `c1ccc(SCCn2c(-c3ccccc3)nc3cc(CN4CCN(C(c5ccccc5)c5ccccc5)CC4)ccc32)cc1` has a melting point of 118 to 125 °C.
In the case of `O=C(CCc1cccnc1)NCCCCC1CCN(S(=O)(=O)c2ccc3ccccc3c2)CC1`, the melting point is reported as 103 to 105 °C.
With `COc1ccc(Nc2ccc(C)cc2)c(C(=O)O)c1` the melting point was 160 to 161 °C.
`O=C(c1ccc([N+](=O)[O-])c(OCc2ccc(-c3ccccc3-c3nnnn3C(c3ccccc3)(c3ccccc3)c3ccccc3)cc2)c1)N1CCOCC1` gave a melting point of 188 to 190 °C.
Work on `CCOC(=O)[C@H](Cc1ccc(OS(=O)(=O)C(F)(F)F)cc1)NC(=O)OC(C)(C)C` yielded a melting point of 47 to 49 °C.
`COc1ccc(Br)c(C=O)c1OC` gave a melting point of 92 to 93 °C.
`COC(=O)CCC(=C1SCCCS1)c1ccc(Oc2ccccc2)cc1` gave a melting point of 95 to 96 °C.
In the case of `O=C(Nc1ccc(N2CCC(NC[C@H](O)COc3cccc4[nH]c5ccccc5c34)CC2)cc1)c1ccc2c(c1)OCO2`, the melting point is reported as 217 to 223 °C.
`O=C(NCCOc1ccccn1)C1Cc2ccccc2N1S(=O)(=O)c1ccc(-c2cccc(C(F)(F)F)c2)cc1` (stereo not drawn) gave a melting point of 85 °C.
`CCN(CC)Cn1cnc2c1c(=O)n(C)c(=O)n2C` gave a melting point of 114 to 115 °C.
In the case of `N#Cc1ccc2nc(C(=O)NCc3cccc(CNC(=O)Cc4nc[nH]n4)c3)[nH]c(=O)c2c1`, the melting point is reported as 207 to 208 °C.
`N=C(N)Nc1nc2cc(Cl)c(Cl)cc2[nH]1` gave a melting point of over 260 °C.
